One data set has as its system cell culture GMK-AH (1D). Kind of data set: Evaluation of cytotoxicity in cell culture GMK-AH (1D). The format is cell-based. The method, then: Evaluation of the cytotoxicity of the test compound using a constant cell culture GMK-AH (1D).
To form a continuous monolayer, 1 ml of cell suspension with a density of 200 thousand/ml was added into each tubes and incubate at a temperature (37.0±0.5)° C., 5% CO2.
Then the growth medium was removed and fresh medium containing various concentrations of test drugs (from 1000 to 6.25 µg/ml) was added. The tubes were then incubated for 5 days at a temperature (37.0+0.5)° C., 5% CO2.
Using a light microscope, the state of the monolayer cells was observed: partial or complete destruction of the monolayer cells, damage to individual cells, cell syncytium formation. Control samples were tubes with a monolayer, which included maintenance medium without a drug.

The test system of another data set is West Nile virus. Nature of the data set: Effectiveness in cell culture GMK-AH (1D) against West Nile virus. The format is cell-based. The method, then:
Monolayer of the cell culture GMK-AH (1D) was infected with West Nile virus in a dose of 0.05 PFU/cell. Virus was adsorbed at 37° C., 5% CO2, for 60 minutes. At the end of the incubation, the monolayer was washed three times with maintenance medium containing 100 u/ml penicillin and streptomycin to remove non-adsorbed virus, and test compounds were added at a concentration of ½ MIC. The substance was dissolved in maintenance medium to the desired concentration. For each compound, not less than 10 tubes with a monolayer of cells were used. Incubation was performed at 37° C., 5% CO2 for 48 hours. Next, the cryodestruction of cells was performed and the samples were combined. The infectious titer in the combined samples was determined by titration by forming negative colonies under the agar coating in the cell culture GMK-AH (1D).

Where [1] appears, read: cytotoxicity, GMK-AH (1D), 5 days.
Where [2] appears, read: 250.0 μg/ml (½ MIC), GMK-AH (1D), 0.05 PFU/cell, 48 hours.

With `CSc1nc2[nH]nc([N+](=O)[O-])c(=O)n2n1` [Claimed compound, 2-methylsulfanyl-6-nitro-7-oxo-1,2,4-triazolo[5,1-c] [1,2,4]triazinid L-arginine dihydrate], the “The frequency of the cytopathic effect of the claimed compound” value with cell culture GMK-AH (1D) (concentration 7.8 mg/mL, GMK-AH (1D), 5 days) was 0/4; in the data set on cell culture GMK-AH (1D) (concentration 15.5 mg/mL, GMK-AH (1D), 5 days), 0/4; in the data set with cell culture GMK-AH (1D) (concentration 31.3 mg/mL, GMK-AH (1D), 5 days), 0/4; in the data set with cell culture GMK-AH (1D) (concentration 62.5 mg/mL, GMK-AH (1D), 5 days), 0/4; in the data set with cell culture GMK-AH (1D) (concentration 250.0 mg/mL, GMK-AH (1D), 5 days) it was 0/4; in the data set on cell culture GMK-AH (1D) (concentration 500.0 mg/mL, GMK-AH (1D), 5 days), 0/4. Also, the “The frequency of the cytopathic effect of the claimed compound” value with cell culture GMK-AH (1D) (concentration 1000.0 mg/mL, GMK-AH (1D), 5 days) is given as 2/4; in the data set with cell culture GMK-AH (1D) (concentration 125,0 mg/mL, GMK-AH (1D), 5 days), 0/4. In addition, the “visible changes in the cell culture” value in the data set with cell culture GMK-AH (1D) (concentration of 500 μg/ml, GMK-AH (1D)) is on record as “did not cause any visible changes”. Further, the “toxicity in the concentrations used” value in the data set on cell culture GMK-AH (1D) (concluding statement) is “nontoxic”. Also, the “½ MIC” value in the data set with cell culture GMK-AH (1D) (cytotoxicity, GMK-AH (1D)) worked out at 250.0 µg/mL. In the data set on cell culture GMK-AH (1D) (setting [1]), this compound gave an MIC of 500.0 µg/mL. Besides, the cytotoxic concentration with cell culture GMK-AH (1D) (setting [1]) amounted to 1000.0 µg/mL. Further, in the data set on West Nile virus (setting [2]), the “Level of the virus accumulation” value was determined as 4.2 lg PFU/ml. Moreover, the “Reduction of the virus accumulation” value in the data set on West Nile virus (setting [2]) is listed as 2.3 lg PFU/ml. In the data set with West Nile virus (Table 2, GMK-AH (1D)), the inhibiting factor was found to be 99.5%. For the same compound, the “inhibits the reproduction of West Nile virus” value with West Nile virus (Table 2, GMK-AH (1D)) was 2.31 g. For the same compound, the “antiviral activity in vitro against West Nile virus” value in the data set on West Nile virus (concluding statement) is recorded as “significant antiviral activity”.
